Assay results published in patent publication US9540418B2, “Polypeptide specifically binding to rare earth nanoparticles and use thereof” (University of Science and Technology of China, priority 2012, dated 2017).
Ends that are not written are not given here.

Tests used:
[1] = Competitive inhibition of REOB-1 phage binding to Nd2O3 by polypeptides (IC50); conditions: 100 μg Nd2O3, REOB-1 phages at a titer of 108, 2 hr incubation; read-out: IC50 (μM)* of polypeptides competitively inhibiting the binding of REOB-1 phages to Nd2O3 nanoparticles
Procedure: 100 μg Nd2O3 was mixed with the polypeptides, RE-1, AP-1, RE-2, RE-3, RE-4, RE-5, RE-6, RE-7, RE-8, RE-9, RE-10, etc., respectively. To the mixture, REOB-1 phages at a titer of 108 were added. After 2 hr of incubation, the number of REOB-1 phages binding to Nd2O3 was measured. IC50 value indicated the relative activity of various polypeptides competitively inhibiting the binding of REOB-1 phages to Nd2O3 nanoparticles. The polypeptide RE-1 and its analogues had different binding ability to Nd2O3.

[2] = system: HeLa-LC3 cells; assay: RE-1 analogues blocking nanophosphor-induced autophagy (LC3 aggregates and vacuoles); type: cell-based; conditions: 24 hr; for inhibition of GFP-LC3 dot-like aggregation and cytoplasm vacuolation induced by UCN: 100 μg/mL UCN coated or mixed; for rank of ability after coating UCN to inhibit cell autophagy induced by UCN: 100 μg/mL
Procedure: UCN and UCP coated with RE-1 analogues RE-2, RE-3, or RE-5 were prepared as follows: 50 μg or 10 μg RE-1 analogues RE-2, RE-3, or RE-5 was mixed with 100 μg UCN or UCP, respectively, incubated at 37° C. for 2 hr, centrifuged at 12000 rpm, and then washed with water 3 times to remove the excess and unbound peptides. The resultant precipitate was resuspended in 100 μL water.
HeLa-LC3 cells were inoculated into a 96-well cell culture plate at a density of about 1-2×10^4 cells/well, and cultured overnight for further use. At first, the medium was replaced with fresh DMEM medium, and then 100 μg/mL UCN, UCN+RE-1, UCN+RE-2, UCN+RE-3, or UCN+RE-5 was added. An equal volume of PBS was used as blank. A mixture of 100 μg/mL UCN and 10 mg/mL PEG was used as negative control. A mixture of 100 mM trehalose and 50 μg RE-1 was used as positive control. After culturing for 24 hr, a fluorescence microscope was used to observe, image, and count.
HeLa-LC3 cells were inoculated into a 96-well cell culture plate at a density of about 1-2×10^4 cells/well, and cultured overnight for further use. At first, the medium was replaced with fresh DMEM medium, and then 100 μg/mL UCP, UCP+RE-1, UCP+RE-2, UCP+RE-3, or UCP+RE-5 was added. An equal volume of PBS was used as blank. After culturing for 24 hr, a fluorescence microscope was used to observe, image, and count.
The ability to induce cell autophagy was estimated by determining the numbers of LC3 aggregates and vacuoles.

[3] = system: HeLa cells; assay: Effect of RE-1 analogues on cytotoxicity induced by UCN, UCP (MTT, PI staining); type: cell-based; conditions: 1 mg/mL, 24 hr
Procedure: (§1) MTT cell vitality assay is performed as follows: The cells to which samples have been added are cultured for 24 hr, and then 0.5 mg/mL MTT solution is added and cultured for 4 hr. The MTT solution in the well is discharged, and then 200 μL DMSO is added, followed by gently shaking the plate on a shaking table for 10 min. Detection is performed using microplate reader (ELX800, purchased from BIO-TEK) at a wavelength of 570 nm.
(§2) PI staining assay is performed as follows: The cells to which samples have been added are cultured for 24 hr, and then to the culture Hoechst 33342 (10 mM, purchased from Sigma, USA, Catalog #: B2261) and PI (Propidium Iodide) (10 mM, purchased from Beyotime Biotechnology, Catalog #: ST511) are added for 10 min of staining. Then, the cells are detected and photographed under a fluorescence microscope (Olympus IX71, purchased from Olympus). The number of the cells counted by this assay was 500.
HeLa cells were inoculated into 96-well cell culturing plate at a density of about 1-2×10^4 cells/well, and cultured overnight for further use. At first, the medium was replaced with fresh DMEM medium, and then 1 mg/mL UCN, UCP, UCN+PEG (containing 10 mg PEG), UCN+RE-1, UCP, UCP+RE-1, UCN+RE-2, UCN+RE-3, UCN+RE-5, UCP+RE-2, UCP+RE-3, or UCP+RE-5 were added, respectively. After culturing for 24 hr, MTT cell viability assay and PI staining were performed to detect the mortality of the cells.

[4] = system: mice liver; assay: Liver damage in mice livers (HE staining); type: in vivo, Balb/c mice; conditions: UCP+RE-1 or UCP+AP-1, tail vein, 24 hr
Procedure: (§3) Balb/c mice (purchased from SLAC Laboratory Animal (Shanghai, China), 6 weeks old, and weighed 20 g when used) were bred in a sterile housing, and then 300 μg (dosage: 15 mg/kg) UCN, UCN+PEG (containing 10 mg PEG), UCN+RE-1, UCP, UCP+RE-1, or UCP+AP-1 was injected through tail vein. An equal volume of normal saline was injected as a control. After 24 hr, the livers of the mice were removed and subjected to western blotting assay.
The mice livers obtained as described in Example 21 were in situ fixed with 2.5% glutaral-dimethyl arsine buffer (pH 7.4) at 4° C. for 1 hr, then fixed with 2% osmium tetroxide at room temperature for 1 hr, and then dehydrated with ethanol gradients. Then, the cell samples were embedded in paraffin. The embedded cell samples were cut into ultrathin slices, which were stained with HE (hematoxylin-eosin), and observed and imaged under fluorescence microscope.

[5] = system: LC3 II in HeLa cells; assay: Western blotting of LC3 in HeLa cells; type: cell-based; conditions: 100 μg/mL UCP+AP-1
Procedure: (§4) Western blotting is performed as follows: After an incubation of 24 h, the cells are collected and lysed with lysis buffer (purchased from Beyotime Biotechnology, China). The lysate is boiled in boiling water for 10 min, subjected to 15% SDS-PAGE, and then transferred to nylon membrane (purchased from Amersham Inc.) by a wet transfer. In the Western blotting, Anti-LC3 (Light Chain 3 Protein Antibody, purchased from Novus Inc., Catalog #: NB 100-2220) is used as primary antibody; GAPDH (purchased from Millipore Inc.) is used as internal reference; and Horseradish peroxidase (HRP) conjugated goat anti-rabbit IgG (H+L) (Goat Anti-Rabbit IgG (H+L), HRP Conjugate) (purchased from Promega Inc.) is used as secondary antibody.
HeLa cells were inoculated into a 24-well cell culturing plate at a density of about 3-5×10^4 cells/well, and cultured overnight for further use. At first, the medium was replaced with fresh DMEM medium, and then 100 μg/mL UCN or UCN+RE-1 was added. An equal volume of PBS was used as blank. A mixture of 100 μg/mL UCN and 10 mg/mL PEG was used as negative control. 100 mM trehalose was used as positive control. Then, western blotting assay was performed.
HeLa cells were inoculated into a 24-well cell culturing plate at a density of about 3-5×10^4 cells/well, and cultured overnight for further use. At first, the medium was replaced with fresh DMEM medium, and then 100 μg/mL UCP or UCP+RE-1 was added. An equal volume of PBS was used as blank. A mixture of 100 μg/mL UCP+AP-1 and a mixture of 400 μg/mL TiO2+AP-1 were used as negative control. 400 μg/mL TiO2 was used as positive control. Then, western blotting assay was performed.

[6] = system: LC3 type II in mice liver; assay: Western blotting of LC3 in mice livers after tail vein injection; type: in vivo; conditions: UCP+AP-1, tail vein, 24 hr
Procedure: as §4, §3

[7] = system: mice liver; assay: Autophagosome formation in mice livers by transmission electron microscope; type: in vivo, Balb/c mice; conditions: RE-1 with UCN, PEG with UCN, AP-1 with UCP
Procedure: as §3
The mice livers obtained as described in Example 21 were in situ fixed with 2.5% glutaral-dimethyl arsine buffer (pH 7.4) at 4° C. for 1 hr, then fixed with 2% osmium tetroxide at room temperature for 1 hr, and then dehydrated with ethanol gradients. Then, the cell samples were embedded into epoxy resin (EPON812). The embedded cell samples were cut into ultrathin slices, which were stained with uranyl acetate and lead citrate, and observed and imaged under a transmission electron microscope (JEOL-1230, JEOL, Japan).

[8] = system: HeLa cells; assay: Adherence of UCN coated with RE-1 or RE-1-RGD to HeLa cells; type: cell-based; conditions: 37° C., 2 hr, versus uncoated
Procedure: HeLa cells were cultured on a coverslip (22 mm×22 mm), which was then placed into a 6-well plate with the cells facing upward or downward, and the coverslip was supported by a sterilized glass cube (2 mm×2 mm×2 mm). Then, 4 mL of DMEM medium containing the rare-earth upconversion nanophosphors coated with RE-1 or RE-1-RGD or without any coating was slowly poured into the 6-well plate, such that the cells were fully immersed in the medium, and the coverslip was just located at the middle of the height of the liquid. The cells were placed into a cell incubator at 37° C. for 2 hr, and then washed with PBS 3 times. The UCNs adhered to the surfaces of the cells were observed under a fluorescence microscope (Olympus IX71, Olympus, Japan) equipped with a 980-nm infrared laser (MDL-980 nm 1 W, Changchun New Industries Optoelectronics Tech. Co., Ltd, China).

[9] = system: HeLa cells; assay: RE-1-RGD effect on cytotoxicity induced by UCN (MTT, PI staining); type: cell-based; conditions: 1 mg/mL RE-1-RGD-coated UCN, 24 hr, MTT and PI staining
Procedure: as §1, §2
HeLa cells were inoculated into 96-well cell culturing plate at a density of about 1-2×10^4 cells/well, and cultured overnight for further use. At first, the medium was replaced with fresh DMEM medium, and then 1 mg/mL UCN, UCN+RE-1, and UCN+RE-1-RGD were added, respectively. After culturing for 24 hr, MTT cell viability assay and PI staining were performed to detect the mortality of the cells.

[10] = system: HeLa-LC3 cells; assay: RE-1-RGD effect on UCN-induced autophagy (LC3 dot-like aggregates and vacuoles); type: cell-based; conditions: 100 μg/mL RE-1-RGD-coated UCN, 24 hr
Procedure: UCN coated with RE-1-RGD was prepared as follows: 50 μg RE-1-RGD and 100 μg UCN were mixed, incubated at 37° C. for 2 hr, and then centrifuged at 12000 rpm. The resultant precipitate was washed with water for 3 times to remove the excess and unbound RE-1-RGD peptides. Then, the precipitate was resuspended in 100 μL water for further use.
HeLa-LC3 cells were inoculated into a 96-well cell culture plate at a density of about 1-2×10^4 cells/well, and cultured overnight for further use. At first, the medium was replaced with fresh DMEM medium, and then 100 μg/mL UCN, UCN+RE-1, and UCN+RE-1-RGD were added, respectively. An equal volume of PBS was used as blank. After culturing for 24 hr, LC3 dot-like aggregates and vacuoles in the cells were observed and imaged under a fluorescence microscope.

[11] = system: LC3 II in HeLa cells; assay: RE-1-RGD effect on UCN-induced autophagy (western blotting LC3 II); type: cell-based; conditions: 100 μg/mL RE-1-RGD-coated UCN
Procedure: as §4
HeLa cells were inoculated into 24-well cell culture plate at a density of about 3-5×10^4 cells/well, and cultured overnight for further use. At first, the medium was replaced with fresh DMEM medium, and then 100 μg/mL UCN, UCN+PEG (containing 10 mg PEG), UCN+RE-1, and UCN+RE-1-RGD were added, respectively. An equal volume of PBS was used as blank. 100 mM trehalose was used as positive control. Then, western blotting assay was performed.

AATARSPWICG [RE-4, RE-1 2C→A]
IC50 [1]: 270 ± 8.67 µM

ACAARSPWICG [RE-5, RE-1 3T→A]
IC50 [1]: 689 ± 8.38 µM
inhibition of GFP-LC3 dot-like aggregation and cytoplasm vacuolation induced by UCN [2]: did not inhibit
rank of ability after coating UCN to inhibit cell autophagy induced by UCN [2]: RE-1>RE-3>RE-5
inhibitory effect of coating on cytotoxicity induced by UCN and UCP [3]: RE-1>RE-3>RE-5

ACNATLPHQCG [AP-1, same terminal amino acids but irrelevant amino acids therebetween, reference compound]
IC50 [1]: > 5000 µM
effect of coating on liver damage induced by UCP [4]: showed no such effect
inhibition of ability of nanophosphor to induce cell autophagy by AP-1 [5]: not for AP-1
inhibition of ability of UCP to induce autophagy in liver [6]: could not inhibit
inhibition of autophagosome formation induced by nanophosphors (UCN, UCP) in liver [7]: did not

ACTAASPWICG [RE-6, RE-1 5R→A]
IC50 [1]: 78.4 ± 7.07 µM

ACTARAPWICG [RE-7, RE-1 65→A as printed]
IC50 [1]: 83.9 ± 6.65 µM

ACTARSAWICG [RE-8, RE-1 7P→A]
IC50 [1]: 440 ± 8.48 µM

ACTARSPAICG [RE-9, RE-1 8W→A]
IC50 [1]: 86.7 ± 8.07 µM

ACTARSPWACG [RE-10, RE-1 9I→A]
IC50 [1]: 71.5 ± 5.1 µM

ACWPATRISCG [RE-3, order of 7 middle amino acids of RE-1 disrupted]
IC50 [1]: 64.3 ± 2.33 µM
inhibition of GFP-LC3 dot-like aggregation and cytoplasm vacuolation induced by UCN [2]: exhibited an inhibitory effect
reduction of GFP-LC3 dot-like aggregation induced by UCN ([2]; 100 μg/mL UCN coated): 21%
reduction of cytoplasm vacuolation induced by UCN ([2]; 100 μg/mL UCN coated): 50%
rank of ability after coating UCN to inhibit cell autophagy induced by UCN [2]: RE-1>RE-3>RE-5
inhibitory effect of coating on cytotoxicity induced by UCN and UCP [3]: RE-1>RE-3>RE-5

CRGDCGGACTARSPWICG [RE-1-RGD, RE-1 and tumor cell-targeting peptide RGD]
number of coated upconversion nanophosphors adhered to the surface of the cells [8]: significantly higher
cell mortality versus group treated with UCN [9]: significantly higher
LC3 dot-like aggregates and vacuoles in cells versus UCN group [10]: significantly increased
LC3 II in the cells [11]: significantly increased

TARSPWI [RE-2, TARSPWI]
IC50 [1]: 1307 ± 6.5 µM
inhibition of GFP-LC3 dot-like aggregation and cytoplasm vacuolation induced by UCN [2]: did not inhibit
rank of ability after coating UCN to inhibit cell autophagy induced by UCN [2]: substantially no inhibitory effect
inhibitory effect of coating on cytotoxicity induced by UCN and UCP [3]: nearly showed no inhibitory effect
